Experimental data reported in patent US20250312329A1, “MODIFIED RELEASE NICORANDIL COMPOUND FORMULATIONS” (AUXILIUS PHARMA SPOLKA Z OGRANICZONA ODPOWIEDZIALNOSCIA, priority 2021, published 2025).

Tests used:
[1] = in vivo; cited from earlier work
[2] = Loss of drying (LOD) of nicorandil/excipient powder blends; type: physicochemical; conditions: 1:1 excipient/API powder blend
Source text: To better understand the stability of nicorandil formulations according to the invention at an ingredient level, the following powder blend combinations were generated and analyzed: • NCD+HPMC • NCD+Starch • NCD+MCC • NCD+Magnesium stearate • NCD+Mannitol (not used in current formulation) • NCD only […]

[3] = Excipient/API powder blend stability: impurities and NCD content initially and after storage; type: physicochemical
Description: To better understand the stability of nicorandil formulations according to the invention at an ingredient level, the following powder blend combinations were generated and analyzed: • NCD+HPMC • NCD+Starch • NCD+MCC • NCD+Magnesium stearate • NCD+Mannitol (not used in current formulation) • NCD only […] These compositions were further analyzed (N=2) for impurities ([…]) and NCD content both initially and after 2 or 4 weeks of storage at accelerated stability testing conditions (40° C.) (per US FDA typical standards/procedures) or room temperature conditions (25° C.). Unknown impurities (“Unk. Imps.”) were also measured and the sum of all measured impurities (“Sum Imps.”) calculated.

[4] = test system: patients with stable angina; conditions: cited from earlier work

O=C(NCCO[N+](=O)[O-])c1cccnc1 [Nicorandil, N-[2-(Nitro-oxy)ethyl]-3-pyridine carboxamide]
elimination half-life [1]: approximately 1 hour | LOD (%) [2]: 0.28% | Imp A ([3]; T = 0): 0.00 Weight Percent | Imp B ([3]; T = 0): 0.01 Weight Percent | Imp C ([3]; T = 0): 0.01 Weight Percent | Imp D ([3]; T = 0): 0.11 Weight Percent | Mass Balance ([3]; T = 0): 98.60 Weight Percent | NCD ([3]; T = 0): 98.40 Weight Percent | Sum Imps. ([3]; T = 0): 0.20 Weight Percent | Unk. Imps. ([3]; T = 0): 0.06 Weight Percent | Imp A ([3]; T = 2 weeks, 40° C.): 0.00 Weight Percent | Imp B ([3]; T = 2 weeks, 40° C.): 0.04 Weight Percent | Imp C ([3]; T = 2 weeks, 40° C.): 0.05 Weight Percent | Imp D ([3]; T = 2 weeks, 40° C.): 0.22 Weight Percent | Mass Balance ([3]; T = 2 weeks, 40° C.): 100.01 Weight Percent | NCD ([3]; T = 2 weeks, 40° C.): 99.52 Weight Percent | Sum Imps. ([3]; T = 2 weeks, 40° C.): 0.49 Weight Percent | Unk. Imps. ([3]; T = 2 weeks, 40° C.): 0.18 Weight Percent | Imp A ([3]; T = 4 weeks, 25° C.): 0.00 Weight Percent | Imp B ([3]; T = 4 weeks, 25° C.): 0.00 Weight Percent | Imp C ([3]; T = 4 weeks, 25° C.): 0.00 Weight Percent | Imp D ([3]; T = 4 weeks, 25° C.): 0.12 Weight Percent | Mass Balance ([3]; T = 4 weeks, 25° C.): 108.41 Weight Percent | NCD ([3]; T = 4 weeks, 25° C.): 108.13 Weight Percent | Sum Imps. ([3]; T = 4 weeks, 25° C.): 0.29 Weight Percent | Unk. Imps. ([3]; T = 4 weeks, 25° C.): 0.17 Weight Percent | composite endpoint of coronary heart disease death, non-fatal MI or unplanned hospital admission with chest pain ([4]; IONA study, versus placebo, average 1.6 years): reduction in the composite endpoint | reduction in all-cause mortality ([4]; JCAD study, average 2.7 years): 35% | reduction in cardiac death ([4]; JCAD study, average 2.7 years): 56%
